In US9988358B2, “Phenazinium mediators” (Roche Diagnostics Operations, Inc., priority 2014, dated 2018):

Tests used:
Format in all cases: physicochemical
[1] = Formal redox potential by cyclic voltammetry in a test strip
Experimental: FIG. 1.) cyclic voltammograms of 1-(3-Carboxy-propionylamino)-5-ethyl-phenazinium (compound of formula (III)). A: Buffer pH 7.0 (blank current), B: 2 mM 1-(3-Carboxy-propionylamino)-5-ethyl-phenazinium in buffer, C: 2 mM 1-(3-Carboxy-propionylamino)-5-ethyl-phenazinium+1.2 mM ascorbic acid in buffer, D: 1.2 mM ascorbic acid in buffer.
The formal redox potential of a typical 1-Acylated amino phenazinium ethosulfate, 1-(3-Carboxy-propionylamino)-5-ethyl-phenazinium (compound of formula (III)), was measured vs. Ag/AgCl at a gold working electrode in a test strip. The cyclic voltammograms show, that a relatively low potential of −100 mV vs. Ag/AgCl is sufficient in order to oxidize the substance.
The quasi reversible oxidation and reduction of the mediator 1-(3-Carboxy-propionylamino)-5-ethyl-phenazinium occurs in a potential range between 0 mV and −500 mV vs. Ag/AgCl via two electron transfer. Ascorbic acid cannot be oxidized in this potential window and the current is similar to the blank current of the pure buffer solution.

[2] = Pot life of mediator formulations; details: 48 h vs t=0 in reaction mixture
Experimental: FIG. 3.) Pot life of mediator formulations. Mediators 1-(3-Carboxy-propionylamino)-5-ethyl-phenazinium and 1-(3-Carboxypropoxy)-5-ethylphenazinium were compared in a pot life experiment. Pot life of 1-(3-Carboxy-propionylamino)-5-ethyl-phenazinium (A: 0 h, B: 48 h) and 1-(3-Carboxypropoxy)-5-ethylphenazinium (C:=0 h, D: 48 h) are shown; Linear: linear regression.
Mediators 1-(3-Carboxy-propionylamino)-5-ethyl-phenazinium and 1-(3-Carboxypropoxy)-5-ethylphenazinium were compared in a pot life experiment. Performance of mediators was measured immediately after preparing the reaction mixture (t=0) and after 48 h. […] Therefore, both mediators seem to be very stable in a formulation.

[3] = Reactivity towards ascorbate, decrease of absorption over time; details: 0.23 mM compound, room temperature, 0.1 M triethylammonium acetate buffer pH 7, 5 fold molar excess of ascorbate
Experimental: 1-Acetylamino-5-methyl-phenazinium trifluormethanesulfonate, 1-Acetylamino-5-ethyl-phenazinium trifluoroacetate, and 1-(3-Carboxy-propionylamino)-5-ethyl-phenazinium (formula III) were compared regarding their reactivity towards ascorbate. To this end, each 0.23 mM of the respective compound was incubated at room temperature in 0.1 M triethylammonium acetate buffer (pH 7) in the presence of a 5 fold molar excess of ascorbate. Decrease of absorption at 517 nm (1-(3-Carboxy-propionylamino)-5-ethyl-phenazinium) or 512 nm (other two compounds) was recorded over time. Whereas with 1-Acetylamino-5-methyl-phenazinium, the absorption decreased by 12% per minute, the decrease slowed to 7% per minute for 1-Acetylamino-5-ethyl-phenazinium, and to less than 5% for 1-(3-Carboxy-propionylamino)-5-ethyl-phenazinium.

Structure (SMILES)	redox potential after adding ascorbic acid ([1]; 2 mM mediator + 1.2 mM ascorbic acid in buffer pH 7.0, cyclic voltammetry)	formal redox potential ([1]; gold working electrode in a test strip, physiological conditions (0.9% NaCl), cyclic voltammetry)	change in current after pot life [2]	decrease of absorption at 517 nm [3]	decrease of absorption at 512 nm [3]
CC[n+]1c2ccccc2nc2c(NC(=O)CCC(=O)O)cccc21 [1-(3-Carboxy-propionylamino)-5-ethyl-phenazinium]	−231 mV vs. Ag/AgCl	−236 mV vs. Ag/AgCl	no significant decrease in current	less than 5%	
CC[n+]1c2ccccc2nc2c(OCCCC(=O)O)cccc21 [1-(3-Carboxypropoxy)-5-ethylphenazinium, reference compound]			no significant decrease in current		
CC[n+]1c2ccccc2nc2c(NC(C)=O)cccc21.O=C([O-])C(F)(F)F [1-Acetylamino-5-ethyl-phenazinium, 1-Acetylamino-5-ethyl-phenazinium trifluoroacetate]					7 % per minute
CC(=O)Nc1cccc2c1nc1ccccc1[n+]2C.O=S(=O)([O-])C(F)(F)F [1-Acetylamino-5-methyl-phenazinium, 1-Acetylamino-5-methyl-phenazinium trifluormethanesulfonate]					12 % per minute
